{
  "source": "patent US20250312462A1",
  "about": "“PAK1 DEGRADERS AND METHODS OF USE THEREOF” (INSTITUTE FOR CANCER RESEARCH D/B/A THE RESEARCH INSTITUTE …, priority 2022, published 2025)",
  "key": {"MEK4": {"molecular_target": "MEK4 (Homo sapiens, UniProt P45985)", "sequence (P45985 whole entry)": "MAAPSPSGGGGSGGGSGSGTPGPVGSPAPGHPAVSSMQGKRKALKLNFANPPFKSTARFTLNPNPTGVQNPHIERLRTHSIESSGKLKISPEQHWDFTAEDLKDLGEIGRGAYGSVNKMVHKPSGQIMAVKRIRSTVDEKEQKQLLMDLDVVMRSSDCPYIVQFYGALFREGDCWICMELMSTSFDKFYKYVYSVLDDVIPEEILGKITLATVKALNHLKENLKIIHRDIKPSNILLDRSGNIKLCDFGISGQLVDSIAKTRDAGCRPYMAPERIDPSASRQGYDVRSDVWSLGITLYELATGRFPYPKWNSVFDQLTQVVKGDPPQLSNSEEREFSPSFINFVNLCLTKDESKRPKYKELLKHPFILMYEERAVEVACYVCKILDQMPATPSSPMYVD", "test": "KINOMEscan", "details": "read-out: Percent Control", "description": "(§1) The kinase engagement assay (KINOMEscan®) was performed by DiscoverX assessing binding abilities toward a set of kinases."}, "PAK3": {"molecular_target": "PAK3 (Homo sapiens, UniProt O75914)", "test": "KINOMEscan", "details": "read-out: Percent Control", "description": "as §1"}, "EPHB2": {"molecular_target": "EPHB2 (Homo sapiens, UniProt P29323)", "test": "KINOMEscan", "details": "read-out: Percent Control", "description": "as §1"}, "p38-beta": {"molecular_target": "p38-beta (Homo sapiens, UniProt Q15759)", "test": "KINOMEscan", "details": "read-out: Percent Control", "description": "as §1"}, "CAMK1B": {"molecular_target": "CAMK1B (Homo sapiens, UniProt Q6P2M8)", "sequence (Q6P2M8 whole entry)": "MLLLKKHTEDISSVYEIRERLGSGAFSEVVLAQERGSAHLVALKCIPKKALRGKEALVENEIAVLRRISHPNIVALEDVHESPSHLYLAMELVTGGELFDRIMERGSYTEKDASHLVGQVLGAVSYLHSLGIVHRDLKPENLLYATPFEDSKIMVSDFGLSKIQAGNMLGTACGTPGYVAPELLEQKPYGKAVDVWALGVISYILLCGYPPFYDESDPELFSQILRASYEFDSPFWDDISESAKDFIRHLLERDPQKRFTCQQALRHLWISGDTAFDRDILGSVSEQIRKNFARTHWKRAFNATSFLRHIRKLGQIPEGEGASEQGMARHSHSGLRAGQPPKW", "test": "KINOMEscan", "details": "read-out: Percent Control", "description": "as §1"}, "Nluc-PAK1": {"molecular_target": "T1, Nluc-PAK1 (Homo sapiens, UniProt Q13153+Q96SW2)", "T1 construct": "[…]; expressed in transfected cells", "test": "Nluc-PAK1 luciferase assay in HEK293 cells", "assay_type": "cell-based", "protocol": "MCF7 ([…], CVCL_0031) were cultured in high-glucose DMEM medium (Gibco) supplemented with 10% fetal bovine serum (HyClone), 2 mM L-glutamine and 100 U/ml penicillin/streptomycin (Gibco). MOLT4 ([…], CVCL_0013) were cultured in RPMI 1640 medium (Gibco) supplemented with 10% fetal bovine serum and 2 mM L-glutamine. OVCAR3 ([…], CVCL_0465), Hey A8 ([…], CVCL_8878) and OMM1 ([…], CVCL_6939) were cultured in RPMI 1640 medium (Gibco) supplemented with 10% fetal bovine serum, 2 mM L-glutamine and 100 U/ml penicillin/streptomycin (Gibco). All cell lines were cultured at 37° C. in a humidified 5% CO2 incubator. HEK293 cells stably expressing Nluc-PAK1 were constructed by transfecting with the pFN31K Nluc-PAK1 expression vector (0.5 μg DNA per well) in 12-well plates using Lipofectamine™ 3000 (Invitrogen) according to the manufacturer's protocol. Transfected Nluc-PAK1 cells were cultured for 1 week in DMEM medium containing G418 (2 mg mL^−1) to select stable clones.\nHEK293 cells stably expressing pFN31K-Nluc-PAK1 were assayed for luciferase activity according to the manufacturer's Nano-Glo® Live Cell Assay System protocol (Promega). In brief, 25 μl of Nano-Glo® Live Cell Reagent was added per well and the plate was gently mixed by hand, then placed in a 37° C. luminometer for 10 minutes.\nTo better quantify the effect of degrader treatment, HEK293 cells were transfected with an expression vector encoding nano-luciferase (Nluc)-tagged PAK1. The Nluc tag allows for luciferase-based quantitation of protein expression (England, et al. (2016) Bioconjug. Chem., 27:1175-1187). Nluc-PAK1 cells were treated with BJG-05-039 or its N-methylated analog, BJG-05-098, and PAK1 expression was assessed (FIG. 2D)."}, "[1]": {"molecular_target": "RPS6KA4(Kin.Dom.2-C-terminal) (Homo sapiens, UniProt O75676)", "test": "KINOMEscan", "details": "read-out: Percent Control", "description": "as §1"}, "PHKG2": {"molecular_target": "PHKG2 (Homo sapiens, UniProt P15735)", "sequence (P15735 whole entry)": "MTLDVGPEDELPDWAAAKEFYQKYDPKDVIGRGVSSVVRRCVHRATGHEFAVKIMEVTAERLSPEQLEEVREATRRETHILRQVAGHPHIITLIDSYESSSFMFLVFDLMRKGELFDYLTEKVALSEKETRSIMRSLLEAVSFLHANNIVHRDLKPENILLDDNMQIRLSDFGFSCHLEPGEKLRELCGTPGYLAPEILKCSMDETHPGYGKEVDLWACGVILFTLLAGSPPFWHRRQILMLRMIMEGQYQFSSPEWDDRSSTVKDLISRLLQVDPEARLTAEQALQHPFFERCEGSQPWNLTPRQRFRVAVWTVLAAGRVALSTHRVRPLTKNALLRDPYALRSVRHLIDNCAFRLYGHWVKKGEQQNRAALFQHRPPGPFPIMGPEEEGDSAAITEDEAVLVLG", "test": "KINOMEscan", "details": "read-out: Percent Control", "description": "as §1"}, "FLT3(ITD, D835V)": {"tested_on": "FLT3(ITD, D835V)", "test": "KINOMEscan", "details": "10 μM", "description": "as §1"}, "EPHB6": {"molecular_target": "EPHB6 (Homo sapiens, UniProt O15197)", "test": "KINOMEscan", "details": "read-out: Percent Control", "description": "as §1"}, "MARK1": {"molecular_target": "MARK1 (Homo sapiens, UniProt Q9P0L2)", "test": "KINOMEscan", "details": "read-out: Percent Control", "description": "as §1"}, "CSF1R-autoinhibited": {"molecular_target": "CSF1R-autoinhibited (Homo sapiens, UniProt P07333)", "test": "KINOMEscan", "details": "read-out: Percent Control", "description": "as §1"}, "EGFR(E746-A750del)": {"molecular_target": "EGFR(E746-A750del) (Homo sapiens, UniProt P00533, DEL746-750)", "test": "KINOMEscan", "details": "read-out: Percent Control", "description": "as §1"}, "MEK3": {"molecular_target": "MEK3 (Homo sapiens, UniProt P46734)", "test": "KINOMEscan", "details": "read-out: Percent Control", "description": "as §1"}, "PIK3C2G": {"molecular_target": "PIK3C2G (Homo sapiens, UniProt O75747)", "test": "KINOMEscan", "details": "read-out: Percent Control", "description": "as §1"}, "GSK3B": {"molecular_target": "GSK3B (Homo sapiens, UniProt P49841)", "test": "KINOMEscan", "details": "read-out: Percent Control", "description": "as §1"}, "GCN2(Kin.Dom.2, S808G)": {"molecular_target": "GCN2(Kin.Dom.2, S808G) (Homo sapiens, UniProt Q9P2K8, S808G)", "sequence (Q9P2K8 590-1001 S808G limits assumed)": "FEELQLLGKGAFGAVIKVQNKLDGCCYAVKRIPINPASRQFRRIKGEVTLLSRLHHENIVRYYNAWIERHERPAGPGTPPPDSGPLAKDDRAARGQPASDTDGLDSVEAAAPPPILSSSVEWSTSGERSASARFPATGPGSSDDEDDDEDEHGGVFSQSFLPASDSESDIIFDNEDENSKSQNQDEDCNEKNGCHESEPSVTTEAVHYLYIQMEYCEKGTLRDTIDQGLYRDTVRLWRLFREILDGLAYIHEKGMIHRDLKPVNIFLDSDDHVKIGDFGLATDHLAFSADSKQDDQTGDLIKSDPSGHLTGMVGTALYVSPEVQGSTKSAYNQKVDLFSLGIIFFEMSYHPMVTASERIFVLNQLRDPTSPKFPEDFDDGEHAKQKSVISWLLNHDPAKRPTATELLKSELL", "test": "KINOMEscan", "details": "read-out: Percent Control", "description": "as §1"}, "MAST1": {"molecular_target": "MAST1 (Homo sapiens, UniProt Q9Y2H9)", "test": "KINOMEscan", "details": "read-out: Percent Control", "description": "as §1"}, "NEK9": {"molecular_target": "NEK9 (Homo sapiens, UniProt Q8TD19)", "sequence (Q8TD19 whole entry)": "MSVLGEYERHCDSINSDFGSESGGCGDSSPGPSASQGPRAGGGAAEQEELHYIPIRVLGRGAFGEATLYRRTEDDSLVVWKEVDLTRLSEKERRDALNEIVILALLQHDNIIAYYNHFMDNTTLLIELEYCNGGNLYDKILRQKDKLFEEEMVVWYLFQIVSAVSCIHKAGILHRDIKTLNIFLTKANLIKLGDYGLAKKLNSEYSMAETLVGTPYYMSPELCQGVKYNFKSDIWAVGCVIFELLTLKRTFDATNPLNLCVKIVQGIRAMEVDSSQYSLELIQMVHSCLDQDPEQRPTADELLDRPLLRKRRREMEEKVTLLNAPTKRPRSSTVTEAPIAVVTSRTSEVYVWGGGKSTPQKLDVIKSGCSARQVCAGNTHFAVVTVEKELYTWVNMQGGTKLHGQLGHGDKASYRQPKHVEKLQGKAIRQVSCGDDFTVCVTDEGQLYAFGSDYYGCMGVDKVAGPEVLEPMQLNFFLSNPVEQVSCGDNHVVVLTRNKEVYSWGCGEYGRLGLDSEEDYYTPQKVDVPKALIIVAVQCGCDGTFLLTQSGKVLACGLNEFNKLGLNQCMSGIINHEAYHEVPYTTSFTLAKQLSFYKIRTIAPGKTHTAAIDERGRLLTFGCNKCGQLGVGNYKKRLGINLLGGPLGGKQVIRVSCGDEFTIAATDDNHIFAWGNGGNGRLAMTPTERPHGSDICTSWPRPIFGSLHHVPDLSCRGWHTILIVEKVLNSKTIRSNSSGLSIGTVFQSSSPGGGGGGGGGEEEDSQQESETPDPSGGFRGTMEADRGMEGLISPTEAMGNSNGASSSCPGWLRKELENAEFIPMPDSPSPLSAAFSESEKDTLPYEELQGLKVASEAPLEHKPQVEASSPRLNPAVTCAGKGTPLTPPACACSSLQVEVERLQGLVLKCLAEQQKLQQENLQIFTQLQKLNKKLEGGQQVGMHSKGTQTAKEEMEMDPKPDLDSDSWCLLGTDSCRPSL", "test": "KINOMEscan", "details": "read-out: Percent Control", "description": "as §1"}, "CASK": {"molecular_target": "CASK (Homo sapiens, UniProt O14936)", "test": "KINOMEscan", "details": "read-out: Percent Control", "description": "as §1"}, "[2]": {"molecular_target": "JAK1(JH1domain-catalytic) (Homo sapiens, UniProt P23458)", "test": "KINOMEscan", "details": "read-out: Percent Control", "description": "as §1"}, "PIK3C2B": {"molecular_target": "PIK3C2B (Homo sapiens, UniProt O00750)", "sequence (O00750 whole entry)": "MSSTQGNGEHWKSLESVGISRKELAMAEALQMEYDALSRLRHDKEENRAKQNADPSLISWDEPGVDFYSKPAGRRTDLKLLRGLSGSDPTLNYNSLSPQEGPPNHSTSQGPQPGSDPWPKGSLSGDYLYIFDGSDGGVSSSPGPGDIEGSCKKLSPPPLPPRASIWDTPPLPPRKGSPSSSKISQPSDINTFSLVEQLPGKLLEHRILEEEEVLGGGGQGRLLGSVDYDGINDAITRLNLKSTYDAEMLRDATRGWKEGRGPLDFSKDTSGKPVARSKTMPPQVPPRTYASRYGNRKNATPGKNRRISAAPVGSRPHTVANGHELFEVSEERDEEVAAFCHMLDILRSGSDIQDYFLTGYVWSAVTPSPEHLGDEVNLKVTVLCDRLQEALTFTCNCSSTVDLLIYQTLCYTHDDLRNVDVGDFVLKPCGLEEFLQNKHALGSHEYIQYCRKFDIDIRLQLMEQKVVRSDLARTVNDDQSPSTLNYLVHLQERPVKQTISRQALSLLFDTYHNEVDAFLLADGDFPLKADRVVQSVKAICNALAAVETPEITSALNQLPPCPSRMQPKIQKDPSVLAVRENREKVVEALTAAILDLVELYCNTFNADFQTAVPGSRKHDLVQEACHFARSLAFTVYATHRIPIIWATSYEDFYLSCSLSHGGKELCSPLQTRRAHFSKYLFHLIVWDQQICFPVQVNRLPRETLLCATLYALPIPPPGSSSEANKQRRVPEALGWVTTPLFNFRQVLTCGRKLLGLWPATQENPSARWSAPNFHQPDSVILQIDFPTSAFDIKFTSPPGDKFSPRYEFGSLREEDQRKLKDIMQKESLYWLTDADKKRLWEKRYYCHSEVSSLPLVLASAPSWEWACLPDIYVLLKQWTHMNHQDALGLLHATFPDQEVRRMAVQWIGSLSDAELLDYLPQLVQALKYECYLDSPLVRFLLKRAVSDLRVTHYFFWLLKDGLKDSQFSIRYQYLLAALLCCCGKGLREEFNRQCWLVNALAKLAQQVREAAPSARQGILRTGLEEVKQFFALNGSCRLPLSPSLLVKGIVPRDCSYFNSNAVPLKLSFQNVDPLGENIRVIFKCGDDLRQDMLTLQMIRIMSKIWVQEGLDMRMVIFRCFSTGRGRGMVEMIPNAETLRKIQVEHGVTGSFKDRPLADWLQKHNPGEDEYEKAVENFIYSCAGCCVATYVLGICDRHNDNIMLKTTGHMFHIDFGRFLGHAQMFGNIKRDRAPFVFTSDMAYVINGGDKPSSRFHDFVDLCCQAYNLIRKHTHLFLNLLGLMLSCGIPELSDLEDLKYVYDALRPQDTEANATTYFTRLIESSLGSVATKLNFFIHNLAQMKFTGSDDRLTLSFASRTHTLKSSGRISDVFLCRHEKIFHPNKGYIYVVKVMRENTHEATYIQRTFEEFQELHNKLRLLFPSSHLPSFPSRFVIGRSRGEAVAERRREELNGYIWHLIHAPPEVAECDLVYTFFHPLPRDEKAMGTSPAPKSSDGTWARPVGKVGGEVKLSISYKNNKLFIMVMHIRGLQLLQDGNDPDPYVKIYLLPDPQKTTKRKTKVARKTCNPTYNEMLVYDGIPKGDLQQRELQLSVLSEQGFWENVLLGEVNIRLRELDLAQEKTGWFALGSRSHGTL", "test": "KINOMEscan", "details": "read-out: Percent Control", "description": "as §1"}, "AKT3": {"molecular_target": "AKT3 (Homo sapiens, UniProt Q9Y243)", "test": "KINOMEscan", "details": "read-out: Percent Control", "description": "as §1"}, "CAMK2B": {"molecular_target": "CAMK2B (Homo sapiens, UniProt Q13554)", "test": "KINOMEscan", "details": "read-out: Percent Control", "description": "as §1"}, "PRKCQ": {"molecular_target": "PRKCQ (Homo sapiens, UniProt Q04759)", "test": "KINOMEscan", "details": "read-out: Percent Control", "description": "as §1"}, "BRSK1": {"molecular_target": "BRSK1 (Homo sapiens, UniProt Q8TDC3)", "sequence (Q8TDC3 whole entry)": "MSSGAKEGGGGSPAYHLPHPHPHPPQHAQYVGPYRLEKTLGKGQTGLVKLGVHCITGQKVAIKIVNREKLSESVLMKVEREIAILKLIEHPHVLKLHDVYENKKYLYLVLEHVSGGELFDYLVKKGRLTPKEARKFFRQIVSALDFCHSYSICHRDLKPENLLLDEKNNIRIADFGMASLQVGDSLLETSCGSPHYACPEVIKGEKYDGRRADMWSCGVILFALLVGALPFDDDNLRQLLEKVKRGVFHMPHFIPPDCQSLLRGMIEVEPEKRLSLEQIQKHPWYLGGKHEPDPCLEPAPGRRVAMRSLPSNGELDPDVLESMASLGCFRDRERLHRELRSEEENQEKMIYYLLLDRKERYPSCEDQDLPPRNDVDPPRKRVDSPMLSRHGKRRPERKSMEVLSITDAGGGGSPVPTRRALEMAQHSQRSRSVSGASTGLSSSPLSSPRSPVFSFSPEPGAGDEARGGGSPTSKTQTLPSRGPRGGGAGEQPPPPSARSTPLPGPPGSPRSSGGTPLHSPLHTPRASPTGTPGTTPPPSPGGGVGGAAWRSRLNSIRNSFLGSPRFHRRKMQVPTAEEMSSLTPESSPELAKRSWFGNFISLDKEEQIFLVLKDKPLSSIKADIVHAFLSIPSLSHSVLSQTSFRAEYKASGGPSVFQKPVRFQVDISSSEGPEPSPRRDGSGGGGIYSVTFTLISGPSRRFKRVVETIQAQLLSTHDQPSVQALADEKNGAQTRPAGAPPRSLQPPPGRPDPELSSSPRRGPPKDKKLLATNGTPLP", "test": "KINOMEscan", "details": "read-out: Percent Control", "description": "as §1"}, "TSSK3": {"molecular_target": "TSSK3 (Homo sapiens, UniProt Q96PN8)", "test": "KINOMEscan", "details": "read-out: Percent Control", "description": "as §1"}},
  "data": [
    {"smiles": "O=C1CCC(N2C(=O)c3cccc(NCCCCCCCCNC(=O)N4CC[C@H](NC5=Nc6cc(F)ccc6N(CC(F)F)c6ccc(Cl)cc65)C4)c3C2=O)C(=O)N1", "note": "(stereo partly drawn) [BJG-05-039, (3S)-3-((2-Chloro-5-(2,2-difluoroethyl)-8-fluoro-5H-dibenzo[b,e][1,4]diazepin-11-yl)amino)-N-(8-((2-(2,6-dioxopiperidin-3-yl)-1,3-dioxoisoindolin-4-yl)amino)octyl)pyrrolidine-1-carboxamide]", "values": [
      {"measurement": "remaining binding at 10 µM", "setting": "MEK4", "value": 85, "unit": "%"},
      {"measurement": "remaining binding at 10 µM", "setting": "PAK3", "value": 100, "unit": "%"},
      {"measurement": "remaining binding at 10 µM", "setting": "EPHB2", "value": 74, "unit": "%"},
      {"measurement": "remaining binding at 10 µM", "setting": "p38-beta", "value": 97, "unit": "%"},
      {"measurement": "remaining binding at 10 µM", "setting": "CAMK1B", "value": 87, "unit": "%"},
      {"measurement": "Reduction in PAK1 expression", "setting": "Nluc-PAK1; 10 nM, HEK293 Nluc-PAK1 cells, 24 hours", "value": "approximately 70%"},
      {"measurement": "Concentration of half-maximal degradation of PAK1", "setting": "Nluc-PAK1; HEK293 Nluc-PAK1 cells", "value": "low nM concentrations"},
      {"measurement": "Loss of the PAK1 protein", "setting": "Nluc-PAK1; in the absence of drug efflux inhibitors", "value": 70, "unit": "%"},
      {"measurement": "remaining binding at 10 µM", "setting": "[1]", "value": 99, "unit": "%"},
      {"measurement": "remaining binding at 10 µM", "setting": "PHKG2", "value": 40, "unit": "%"},
      {"measurement": "Percent Control", "setting": "FLT3(ITD, D835V)", "value": 95},
      {"measurement": "remaining binding at 10 µM", "setting": "EPHB6", "value": 97, "unit": "%"},
      {"measurement": "remaining binding at 10 µM", "setting": "MARK1", "value": 98, "unit": "%"},
      {"measurement": "remaining binding at 10 µM", "setting": "CSF1R-autoinhibited", "value": 100, "unit": "%"},
      {"measurement": "remaining binding at 10 µM", "setting": "EGFR(E746-A750del)", "value": 100, "unit": "%"},
      {"measurement": "remaining binding at 10 µM", "setting": "MEK3", "value": 94, "unit": "%"},
      {"measurement": "remaining binding at 10 µM", "setting": "PIK3C2G", "value": 95, "unit": "%"},
      {"measurement": "remaining binding at 10 µM", "setting": "GSK3B", "value": 90, "unit": "%"},
      {"measurement": "remaining binding at 10 µM", "setting": "GCN2(Kin.Dom.2, S808G)", "value": 56, "unit": "%"},
      {"measurement": "remaining binding at 10 µM", "setting": "MAST1", "value": 71, "unit": "%"},
      {"measurement": "remaining binding at 10 µM", "setting": "NEK9", "value": 82, "unit": "%"},
      {"measurement": "remaining binding at 10 µM", "setting": "CASK", "value": 99, "unit": "%"},
      {"measurement": "remaining binding at 10 µM", "setting": "[2]", "value": 42, "unit": "%"},
      {"measurement": "remaining binding at 10 µM", "setting": "PIK3C2B", "value": 90, "unit": "%"},
      {"measurement": "remaining binding at 10 µM", "setting": "AKT3", "value": 57, "unit": "%"},
      {"measurement": "remaining binding at 10 µM", "setting": "CAMK2B", "value": 46, "unit": "%"},
      {"measurement": "remaining binding at 10 µM", "setting": "PRKCQ", "value": 77, "unit": "%"},
      {"measurement": "remaining binding at 10 µM", "setting": "BRSK1", "value": 51, "unit": "%"},
      {"measurement": "remaining binding at 10 µM", "setting": "TSSK3", "value": 100, "unit": "%"}
    ]}
  ]
}
